Where a name gives a salt, the structure may show the parent alone.
Legend:
BALB/cJRj mice [1] = test: OF with optogenetic inhibition of mPFC terminals in the DRN (CaMKII-ArchT); assay type: in vivo; conditions: intra-mPFC RS67333 0.5 pg/side or diazepam 1.5 pg/side; for inhibition of the drug-induced increase in center time (OF) during 3-min green light illumination: light ON
Source text: Motor activity was quantified in four 39×39 cm perpex plastic open field boxes (Vivo-tech/Ugo Basile, Salon de Provence, France). The apparatus was illuminated from the ground with special designed 40×40 cm Infra-red backlights (monochromatic wavelength 850 nm high homogeneity, Vivo-tech, Salon de Provence, France). Activity chambers were monitored by four black and white cameras with varifocal optics and polarizing filters (Vivo-tech, Salon de Provence, France). For optogenetic experiments, optical bandpass filters were specifically selected to improve tracking detection. The whole set-up was controlled using ANYMAZE version 6 video tracking software (Stoelting Co/Vivo-tech, Salon de Provence, France). Dependent measures were time in the center over a 10 min for systemic administration or 6 min test period for optogenetic experiments, total ambulatory distance and ambulatory distance traveled in the center divided by total distance.
(§1) To target opsin expression selectively to cortical glutamatergic terminals in the DRN, AAV5-CaMKIIα-ChR2-enhanced yellow fluorescent protein (eYFP), AAV5-CaMKII-ArchT-green fluorescent protein (GFP) or AAV5-CaMKII-eYFP, obtained from Karl Deisseroth and Ed Boyden (UNC Vector Core, NC, USA) were bilaterally injected into the mPFC (in mm from bregma, A=+2.10, L=±0.50, V=−2.60). Mice injected with AAV5-CamKII-eYFP were used as control.
(§2) BALB/cJRj mice were surgically implanted with fiber optics targeted to the DRN (in mm from bregma, A=−4.50, L=+1.20, V=−4.0, angle 15°). A […] core, 0.37 NA fiber optic (ThorLabs, ˜10-12 and 15-16 mW for ChR2 and Arch-T, respectively, at the tip of optic) was used for optical stimulation via a patch cable connected to either a 473 or 532 nm laser diode (OEM laser systems, USA) as previously described (A-S15). For behavioral experiments, AAV5-CaMKIIα-ChR2-eYFP mice and their controls received a 10 Hz stimulation, 20 ms pulses, over a 3-minute period whereas a green light was delivered continuously to AAV5-CaMKII-ArchT-GFP throughout the 3 min testing period. Similar doses of RS67333 (locally in the mPFC at […] or at 1.5 mg/kg, i.p.) and diazepam (locally in the mPFC at […] or at 1.5 mg/kg, i.p.) were infused in the mPFC or administered i.p. The stimulation or the inhibition of mPFC projections in the DRN occurred simultaneously to the behavioral paradigms.

BALB/cJRj mice [2] = test: EPM with optogenetic inhibition of mPFC terminals in the DRN (CaMKII-ArchT); assay type: in vivo; conditions: for time, percent time spent in the open arms (EPM), light OFF / inhibition of the drug-induced increase in open-arm time (EPM) during 3-min green light illumination: intra-mPFC RS67333 0.5 pg/side or diazepam 1.5 pg/side; for inhibition of the drug-induced increase in open-arm time (EPM) during 3-min green light illumination: light ON
Method: The EPM is a widely used behavioral assay for rodents and it has been validated to assess the anti-anxiety effects of pharmacological agents (A-S11). This test was performed as described by (A-S1). The maze is a plus-cross-shaped apparatus, with two open arms and two arms closed by walls linked by a central platform 50 cm above the floor. Mice were individually put in the center of the maze facing an open arm and were allowed to explore the maze during 5 min for the behavioral consequences of an acute systemic administration or mPFC infusion and during 6 min for the optogenetic experiments. The time spent in and the numbers of entries into the open arms were used as an anxiety index. All parameters were measured using a videotracker (EPM3C, Bioseb, Vitrolles, France).
as §1, §2

[3] = CaMKII-ArchT-mPFC injected mice, systemic RS67333 1.5 mg/kg or diazepam 1.5 mg/kg
[4] = CamKII-ArchT mice, intra-mPFC infusion

Row | SMILES | time spent in the center (OF), light OFF (BALB/cJRj mice [1]) | inhibition of the drug-induced increase in center time (OF) during 3-min green light illumination (BALB/cJRj mice [1]) [%] | decrease in time spent in the open arms (EPM), light ON vs light OFF (BALB/cJRj mice [2]; [3]) [%] | time, percent time spent in the open arms (EPM), light OFF (BALB/cJRj mice [2]; CamKII-ArchT mice) | inhibition of the drug-induced increase in open-arm time (EPM) during 3-min green light illumination (BALB/cJRj mice [2]; CamKII-ArchT mice) [%] | time, percent time in open arms and ratio open arms/total distance (EPM), light OFF vs vehicle (BALB/cJRj mice [2]; [3]) | drug-induced increase of ratio open arms/total distance (EPM), light ON (BALB/cJRj mice [2]; [4]) | ratio of ambulatory distance in open arms divided by total distance (EPM), light OFF vs controls (BALB/cJRj mice [2]; [4])
1 | CCCCN1CCC(CCC(=O)c2cc(Cl)c(N)cc2OC)CC1.Cl [RS-67,333, 1-(4-amino-5-chloro-2-methoxyphenyl)-3-[1(n-butyl)-4-piperidinyl]-1-propanone HCl] | increased significantly the time spent in the center | 85±20 | 24 | increased significantly time | 70±8 |  |  | 
2 | CN1C(=O)CN=C(c2ccccc2)c2cc(Cl)ccc21 [diazepam, Diazepam hydrochloride] | increased significantly the time spent in the center | 80±22 | 17 | increased significantly time | 85±5 | increased time, percent time spent in open arms | blocked | increased the ratio
